From article PMC1968196, “Effect of anthracycline analogs on photolabelling of p-glycoprotein by [125I]iodomycin and [3H]azidopine: relation to lipophilicity and inhibition of daunorubicin transport in multidrug resistant cells” (British Journal of Cancer, 1993)
Where “and” joins values, the source holds several entries; their conditions need not be identical. Equal entries are not always repeated. Where two headings read alike, the source gives them in different places.

What was measured:
[1] = system: EHR2/DNR+ cells; test: Steady-state drug accumulation in EHR2 and EHR2/DNR+ cells; format: cell-based, mice
Description: (§1) Br. J. Cancer (1993), 67, 226 231 ? Macmillan Press Ltd., 1993 Effect of anthracycline analogs on photolabelling of p-glycoprotein by I'25 liodomycin and [3Hlazidopine: Relation to lipophilicity and inhibition of daunorubicin transport in multidrug resistant cells E. Frichel*, E.J.F. Demant2, M. Sehested3 & N.I. Nissen' 'Department of Medicine and Hematology, L 4042, Rigshospitalet-University Hospital, 9, Blegdamsvej, DK-2100 Copenhagen; 2Department of Biochemistry C, The Panum Institute, University of Copenhagen, DK-2200 Copenhagen; 3Department of Pathology, Sundby Hospital, DK-2300 Copenhagen, Denmark. […] We photoaffinity labelled P-glycoprotein in daunorubicin (DNR) resistant Ehrlich ascites tumour cells (EHR2/DNR + ) with a ['25I]iodinated Bolton-Hunter derivative of daunorubicin ([1251]iodomycin) and with [3H]azidopine. […] Anthracyclines are among the most valuable cytostatic agents in clinical use. Their usefulness is, however, limited by the occurrence of tumour cells with the multidrug resistance (MDR) phenotype (Beck, 1987; Bliek & Borst, 1989; Endicott & Ling, 1989; Kaye & Merry, 1985; Moscow & Cowan, 1988). MDR cells have an enhanced amount of a 150- 170 kDa plasma membrane glycoprotein, P-glycoprotein (Pgp) (Kartner et al., 1983 and 1985; Cornwell et al., 1986; Bradley et al., 1988; Beck, 1991a; Roninson, 1991), that may function as a low-specificity transport protein to facilitate the outward transport of cytotoxic agents including the anthracyclines. […] Anthracycline inter-actions with Pgp were assessed using the specific photolabelling of the protein with [251I]iodomycin, a ['251]iodinated Bolton-Hunter derivative of DNR (Busche et al., 1989a) and with [3H]azidopine ([3H]AZP) which photolabels Pgp in plasma membrane vesicles from EHR2/ DNR + cells (Sehested et al., 1990) as well as in whole cells (Safa et al., 1987; Friche et al., 1990c). […]

[2] = system: Pgp; conditions: read-out: Kd for binding to Pgp, cited from earlier work
[3] = system: P-glycoprotein; test: [125I]iodomycin photolabelling of Pgp in EHR2/DNR+ cells; format: binding, mice
Description: (§2) Br. J. Cancer (1993), 67, 226 231 ? Macmillan Press Ltd., 1993 Effect of anthracycline analogs on photolabelling of p-glycoprotein by I'25 liodomycin and [3Hlazidopine: Relation to lipophilicity and inhibition of daunorubicin transport in multidrug resistant cells E. Frichel*, E.J.F. Demant2, M. Sehested3 & N.I. Nissen' 'Department of Medicine and Hematology, L 4042, Rigshospitalet-University Hospital, 9, Blegdamsvej, DK-2100 Copenhagen; 2Department of Biochemistry C, The Panum Institute, University of Copenhagen, DK-2200 Copenhagen; 3Department of Pathology, Sundby Hospital, DK-2300 Copenhagen, Denmark. […] We photoaffinity labelled P-glycoprotein in daunorubicin (DNR) resistant Ehrlich ascites tumour cells (EHR2/DNR + ) with a ['25I]iodinated Bolton-Hunter derivative of daunorubicin ([1251]iodomycin) and with [3H]azidopine. […] Anthracyclines are among the most valuable cytostatic agents in clinical use. Their usefulness is, however, limited by the occurrence of tumour cells with the multidrug resistance (MDR) phenotype (Beck, 1987; Bliek & Borst, 1989; Endicott & Ling, 1989; Kaye & Merry, 1985; Moscow & Cowan, 1988). MDR cells have an enhanced amount of a 150- 170 kDa plasma membrane glycoprotein, P-glycoprotein (Pgp) (Kartner et al., 1983 and 1985; Cornwell et al., 1986; Bradley et al., 1988; Beck, 1991a; Roninson, 1991), that may function as a low-specificity transport protein to facilitate the outward transport of cytotoxic agents including the anthracyclines. Thus, increased drug efflux and therefore decreased accumulation is seen in MDR cells not only to the drug for which resistance is developed but also to a wide spectrum of chemically unrelated cytostatics (Bradley et al., 1988; Fojo et al., 1985). […] The aim of this study was to examine these analogs for their ability to com- pete for ligand binding to Pgp and thus service as inhibitors for the outward drug transport system in MDR cells. Anthracycline inter-actions with Pgp were assessed using the specific photolabelling of the protein with [251I]iodomycin, a ['251]iodinated Bolton-Hunter derivative of DNR (Busche et al., 1989a) and with [3H]azidopine ([3H]AZP) which photolabels Pgp in plasma membrane vesicles from EHR2/ DNR + cells (Sehested et al., 1990) as well as in whole cells (Safa et al., 1987; Friche et al., 1990c). […] Material and methods Chemicals Duanorubicin (DNR); AdriamycinR (Doxorubicin/HCl, DOX); 4'-deoxy-4'-iododoxorubicin (DIDOX); and 4- demethoxy-DNR were kindly supplied from Farmitalia, Carlo Erba (Milan, Italy). N,N-dibenzyl-DNR was a gift from Dr Nicholas Bachur, (Baltimore, MD) and N- benzyladriamycin-14-valerate (AD 198) a gift from Professor M. Israel (Memphis, TN). Mitoxantrone was purchased from Lederle (New Jersey, USA), Aclacinomycin A from Lund- beck & Co A/S (Copenhagen, Denmark), OncovinR (Vincristine/HCl, VCR) from Eli Lilly Deutschland GMBH (Giessen, Germany), Cremophor EL from BASF Aktiengesellschaft (Ludwigshafen, Germany), and Tween 80 from the Sigma Chemical Co. (St. Louis, MO). ['251]-Bolton- Hunter reagent (2000 Ci mmol 1), [3H]AZP (42 Ci mmol- ') and non-radioactive AZP were purchased from Amersham International (Amersham, UK). All other chemicals were of analytical grade. Organic solvents were distilled prior to use. Triethylamine was distilled over ninhydrin and anhydrous methanol was stored over molecular sieve (3 A). Tumour cells Cells were either the wild-type Ehrlich ascites tumor line (EHR2) or the corresponding DNR-resistant line (EHR2/ DNR + ) (Dan0, 1971) displaying both the MDR phenotype (Sehested et al., 1990) and as recently shown, decreased Correspondence: E. Friche. Received 22 April 1992; and in revised form 21 September 1992.

[4] = system: P-glycoprotein; test: [3H]azidopine photolabelling of Pgp in EHR2/DNR+ cells; format: binding, mice; conditions: [3H]AZP 0.4 µM
Description: as §2

[5] = pH 7.45
Description: as §2

[6] = system: EHR2/DNR+ cells; test: Modulating effect on steady-state DNR accumulation in EHR2/DNR+ cells; format: cell-based, mice; conditions: equimolar concentrations (5 µM)
Description: as §1, with “use.” for “use. Their usefulness is, however, limited by the occurrence of tumour cells with the multidrug resistance (MDR) phenotype (Beck, 1987; Bliek & Borst, 1989; Endicott & Ling, 1989; Kaye & Merry, 1985; Moscow & Cowan, 1988). MDR cells have an enhanced amount of a 150- 170 kDa plasma membrane glycoprotein, P-glycoprotein (Pgp) (Kartner et al., 1983 and 1985; Cornwell et al., 1986; Bradley et al., 1988; Beck, 1991a; Roninson, 1991), that may function as a low-specificity transport protein to facilitate the outward transport of cytotoxic agents including the anthracyclines.”

[7] = system: EHR2/DNR+ cells; conditions: ref Friche et al., 1990b; Arcamone, 1985; cited from earlier work
[8] = 5 µM modulator (500-fold molar excess)
[9] = 10 µM drug (1000-fold molar excess), iodomycin 10 nM, 30 min 37°C
[10] = 40 µM drug (100-fold molar excess)

Compound	Per cent inhibition of [125I]iodomycin photolabelling of Pgp [3, 9]	Per cent inhibition of [3H]AZP photolabelling of Pgp ([4]; 10 µM drug) [%]	Per cent inhibition of [3H]AZP photolabelling of Pgp ([4]; 20 µM drug) [%]	Per cent inhibition of [3H]AZP photolabelling of Pgp [4, 10] [%]	Per cent inhibition of [125I]iodomycin photolabelling of Pgp ([3]; 20 µM drug, iodomycin 10 nM) [%]	Per cent inhibition of [125I]iodomycin photolabelling of Pgp ([3]; 40 µM drug, iodomycin 10 nM) [%]	Lipid solubility (O/W), octanol/water partition coefficient [5]	other results
COc1cccc2c1C(=O)c1c(O)c3c(c(O)c1C2=O)CC(O)(C(C)=O)CC3OC1CC(NC(=O)CCc2ccc(O)c(I)c2)C(O)C(C)O1 (stereo not drawn) [[125I]iodomycin]	–	–	–	–	–	–	–	Reduced steady-state accumulation in EHR2/DNR+ relative to EHR2 [1]: ~5 fold; Steady-state accumulation ([1]; EHR2/DNR+ cells): 42 fmol 10-6 cells; Steady-state accumulation ([1]; EHR2 cells (wild type)): 207 fmol 10-6 cells; Kd ([2]; ref Busche et al., 1989b): 25 nM
CCOC(=O)C1=C(C)NC(C)=C(C(=O)OCCNC(=O)c2ccc(N=[N+]=[N-])cc2)C1c1ccccc1C(F)(F)F (stereo not drawn) [Azidopine]	67.9%	–	–	–	–	–	–	Per cent inhibition of [125I]iodomycin photolabelling of Pgp ([3]; 1 µM modulator): 6.7%; Per cent inhibition of [125I]iodomycin photolabelling of Pgp ([3]; 1 µM modulator, listed as AZP): hardly inhibited; Per cent inhibition of [125I]iodomycin photolabelling of Pgp [3, 8]: 50.0%; Per cent inhibition of [125I]iodomycin photolabelling of Pgp ([3]; 5 µM modulator (500-fold molar excess), listed as AZP): 50%; Kd ([2]; ref Safa et al., 1987): 1000 nM
CCCCC(=O)OCC(=O)[C@]1(O)Cc2c(O)c3c(c(O)c2[C@@H](O[C@H]2C[C@H](NCc4ccccc4)[C@H](O)[C@H](C)O2)C1)C(=O)c1c(OC)cccc1C3=O [AD-198, N-benzyladriamycin-14-valerate]	85%	74.1	81.7	90.9	95.8	> 99	> 200	Per cent inhibition of [3H]AZP photolabelling of Pgp ([4]; 40 µM drug (100-fold molar excess), listed as Ad-198): about 90%
COc1cccc2c1C(=O)c1c(O)c3c(c(O)c1C2=O)C[C@@](O)(C(C)=O)C[C@@H]3OC1CC(N(Cc2ccccc2)Cc2ccccc2)C(O)C(C)O1.Cl (stereo partly drawn) [N,N,-dibenzyl-daunorubicin]	52.4%	75.2	87.1	90.5	97.3	> 99	> 200	Per cent inhibition of [3H]AZP photolabelling of Pgp ([4]; 40 µM drug (100-fold molar excess), listed as N,N-dibenzyl-DNR): about 90%; Per cent inhibition of [125I]iodomycin photolabelling of Pgp ([3]; 20 µM drug, iodomycin 10 nM, listed as N,N-dibenzyl-DNR): 97%; Effect on accumulation of DNR [6]: did increase accumulation of DNR the most
CC(=O)[C@]1(O)Cc2c(O)c3c(c(O)c2[C@@H](O[C@H]2C[C@H](N)[C@H](O)[C@H](C)O2)C1)C(=O)c1ccccc1C3=O [4-demethoxy-daunorubicin]	35.9%	1.5	3.6	19.8	52.2	58.3	13.08	–
CC[C@]1(O)C[C@H]2CN(CCc3c([nH]c4ccccc34)[C@@](C(=O)OC)(c3cc4c(cc3OC)N(C=O)[C@H]3[C@@](O)(C(=O)OC)[C@H](OC(C)=O)[C@]5(CC)C=CCN6CC[C@]43[C@@H]65)C2)C1 [Vincristine]	95% and 94.3%	–	–	–	–	–	1.98	Per cent inhibition of [125I]iodomycin photolabelling of Pgp ([3]; 1 µM modulator): 53.1%; Per cent inhibition of [125I]iodomycin photolabelling of Pgp ([3]; 1 µM modulator, listed as VCR): about 50%; Per cent inhibition of [125I]iodomycin photolabelling of Pgp [3, 8]: 78.6%; Per cent inhibition of [125I]iodomycin photolabelling of Pgp ([3]; 10 µM drug (1000-fold molar excess), iodomycin 10 nM, 30 min 37°C, listed as VCR): almost completely blocked
COc1cccc2c1C(=O)c1c(O)c3c(c(O)c1C2=O)C[C@@](O)(C(=O)CO)C[C@@H]3O[C@H]1C[C@H](N)[C@H](I)[C@H](C)O1 [DIDOX, 4'-deoxy-4'-iododoxorubicin]	20.6%	0	0	19.7	17.5	22.5	14.51	Effect on accumulation of DNR [7]: did not increase DNR accumulation
O=C1c2c(O)ccc(O)c2C(=O)c2c(NCCNCCO)ccc(NCCNCCO)c21 [Mitoxantrone]	42.9%	7.5	15.6	19.5	56.9	58.8	5.06	–
CC[C@@]1(O)C[C@H](O[C@H]2C[C@H](N(C)C)[C@H](O[C@H]3C[C@H](O)[C@H](O[C@H]4CCC(=O)[C@H](C)O4)[C@H](C)O3)[C@H](C)O2)c2c(cc3c(c2O)C(=O)c2c(O)cccc2C3=O)[C@H]1C(=O)OC [Aclacinomycin A]	22.6%	65.3	74.7	85.7	52.0	75.3	–	Effect on accumulation of DNR [6]: did increase accumulation of DNR the most
